Test results taken from patent publication EP0067641A2, “Amino acids” (BEECHAM GROUP PLC, priority 1981, dated 1982).
Marks after values point to notes of the source that are not given here.

Tested on: rats made hyperlipidaemic by diet
Assay: Effects on serum lipids in vivo in rats made hyperlipidaemic by diet
Design: species or system Male Sprague-Dawley rats
Settings: compound fed at 0.1% of the powdered diet (approximately 100 mg/kg/day), 7 days, (-) lower, (+) higher than control; for Percentage difference from Control Values in High Density lipoprotein (HDL) cholesterol: HDL fraction by heparin-manganous chloride precipitation, four pooled samples per group; for Percentage difference from Control Values in Total Serum Triglyceride / Percentage difference from Control Values in Total Serum Cholesterol: semi-synthetic diet rich in sucrose and cholesterol
Method: The compounds of the Examples above were tested for their effects on serum lipids in vivo using rats made hyperlipidaemic by diet*.
Male Sprague-Dawley rats, 80-100 g , were randomised into groups of 8 after 5 - 7 days of feeding on the diet. The compounds were fed to the rats at a concentration of * 0.1% of the powdered diet (ie approximately 100 mg/kg/ day), unless otherwise stated. The control groups were fed only the diet. At the end of the experiment, ie after 7 days, the rats were killed and their individual total serum cholesterol and triglyceride measured in mg/100 ml using a Technicon Autoanalyser. The high density lipoprotein (HDL)-cholesterol fraction, which was obtained from the serum by precipitation with heparin- manganous chloride, was measured on four 'pooled' samples from each group.
^* A semi-synthetic diet rich in sucrose and cholesterol.

| SMILES | Percentage difference from Control Values in High Density lipoprotein (HDL) cholesterol | Percentage difference from Control Values in Total Serum Triglyceride | Percentage difference from Control Values in Total Serum Cholesterol |
| --- | --- | --- | --- |
| O=C(O)[C@H](Cc1ccccc1)NCc1ccco1 [Example 6, N-(2-Furyl)methyl-L-phenylalanine] | +26* % | +39% | – |
| O=C(O)[C@H](Cc1ccccc1)NCc1cccc2ccccc12 [Example 3, N-(1-Naphthyl)methyl-L-phenylalanine] | +41* % | -63* % | +62* % |
| O=C(O)C(Cc1ccc(Cl)cc1)NCc1ccccn1 (racemic) [Example 4, N-(2-pyridyl)methyl-DL-(4-chlorophenyl) alanine] | +44* % | -30* % | +78* % |
| O=C(O)C(Cc1ccc(Cl)cc1)NCc1ccc(Cl)s1 (racemic) [Example 1, N-[2-(5-chloro)thienyl]methyl-DL-(4-chlorophenyl) alanine] | +31* % | -42* % | +16% |
| O=C(O)[C@H](Cc1ccccc1)NCc1ccc2ccccc2c1 [Example 5, N-(2-Naphthyl)methyl-L-phenylalanine] | +30* % | -57* % | +17* % |
| O=C(O)C(Cc1ccc(Cl)cc1)NCc1ccco1 (racemic) [Example 2, N-(2-Furyl)methyl-DL-(4-chlorophenyl)-alanine] | +84* % | -47* % | +61* % |
